According to patent US20150105252A1, “SUBSTITUTED PYRAZOLES AS HERBICIDES” (E I DU PONT DE NEMOURS AND COMPANY, priority 2013, published 2015):

Tests used:
johnsongrass = test: Test C preemergence; type: in vivo, Sorghum halepense; conditions: preemergence; for Plant response rating, Johnsongrass: 125 g ai/ha, scale 0 to 100, 0 = no effect, 100 = complete control
Outline: (§1)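 Seeds sown in loam–sand blend and treated preemergence with test chemicals in non-phytotoxic solvent with surfactant; postemergence plants in peat-based medium, treated at 2–18 cm (1- to 4-leaf stage). Greenhouse 13 to 15 days, then visual rating versus controls, 0 (no effect) to 100 (complete control).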

foxtail, giant [1] = test: Test C preemergence; type: in vivo, Setaria faberii; conditions: preemergence; for Plant response rating, Foxtail, Giant: 125 g ai/ha, scale 0 to 100, 0 = no effect, 100 = complete control
Outline: as §1

morningglory = test: Test A preemergence; type: in vivo, Ipomoea spp.; conditions: preemergence; for Morningglory plant response rating (0 to 100 scale): 125 g ai/ha, visual injury approx. 10 days after treatment; for Morningglory plant response rating: 500 g ai/ha, visual injury after approx. 10 days, 0 to 100 scale (0 no effect, 100 complete control)
Outline: (§2)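 Growth medium: loam soil blended with sand. Preemergence treatment used a directed soil spray right after planting; postemergence treatment targeted seedlings at one to two leaves (2–10 cm height). Response was judged by eye relative to untreated plants about 10 days later on a 0–100 control scale.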

foxtail, giant [2] = test: Test A preemergence; type: in vivo, Setaria faberii; conditions: preemergence; for Foxtail, Giant plant response rating (0 to 100 scale): 125 g ai/ha, visual injury approx. 10 days after treatment; for Foxtail, Giant plant response rating: 500 g ai/ha, visual injury after approx. 10 days, 0 to 100 scale (0 no effect, 100 complete control)
Outline: as §2

corn = test: Test C preemergence; type: in vivo, Zea mays; conditions: preemergence; for Plant response rating, Corn: 125 g ai/ha, scale 0 to 100, 0 = no effect, 100 = complete control
Outline: as §1

oilseed rape = test: Test C preemergence; type: in vivo, Brassica napus; conditions: preemergence; for Plant response rating, Oilseed Rape: 125 g ai/ha, scale 0 to 100, 0 = no effect, 100 = complete control
Outline: as §1

crabgrass, large = test: Test C preemergence; type: in vivo, Digitaria sanguinalis; conditions: preemergence; for Plant response rating, Crabgrass, Large: 125 g ai/ha, scale 0 to 100, 0 = no effect, 100 = complete control
Outline: as §1

ryegrass, Italian = test: Test C preemergence; type: in vivo, Lolium multiflorum; conditions: preemergence; for Plant response rating, Ryegrass, Italian: 125 g ai/ha, scale 0 to 100, 0 = no effect, 100 = complete control
Outline: as §1

barnyardgrass [3] = test: Test A preemergence; type: in vivo, Echinochloa crus-galli; conditions: preemergence
Outline: as §2

velvetleaf [4] = test: Test A preemergence; type: in vivo, Abutilon theophrasti; conditions: preemergence; for Velvetleaf plant response rating (0 to 100 scale): 125 g ai/ha, visual injury approx. 10 days after treatment; for Velvetleaf plant response rating: 500 g ai/ha, visual injury after approx. 10 days, 0 to 100 scale (0 no effect, 100 complete control)
Outline: as §2

barnyardgrass [5] = test: Test C preemergence; type: in vivo, Echinochloa crus-galli; conditions: preemergence; for Plant response rating, Barnyardgrass: 125 g ai/ha, scale 0 to 100, 0 = no effect, 100 = complete control
Outline: as §1

velvetleaf [6] = test: Test A postemergence; type: in vivo, Abutilon theophrasti
Outline: as §2

barnyardgrass [7] = test: Test B flood; type: in vivo, Echinochloa crus-galli; conditions: 250 g ai/ha, visual rating on 0 to 100 scale (0 no effect, 100 complete control), 13 to 15 days
Outline: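 Response scored visually, 0–100 relative to controls, 13–15 days after the compound was applied into paddy water; plants were at the 2-leaf stage in pots kept flooded to 3 cm.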

ragweed = test: Test C preemergence; type: in vivo, Ambrosia elation; conditions: preemergence; for Plant response rating, Ragweed: 125 g ai/ha, scale 0 to 100, 0 = no effect, 100 = complete control
Outline: as §1

[8] = 31 g ai/ha, visual rating, scale 0 to 100 (0 no effect, 100 complete control), 13 to 15 days
[9] = 250 g ai/ha, scale 0 to 100, 0 is no effect, 100 is complete control
[10] = 62 g ai/ha, scale 0 to 100 (0 no effect, 100 complete control), 13 to 15 days
[11] = 500 g ai/ha, visual injury after approx. 10 days, 0 to 100 scale (0 no effect, 100 complete control)
[12] = Postemergence, 500 g ai/ha, 0 to 100 scale (0 no effect, 100 complete control)
[13] = postemergence, 125 g ai/ha, about 10 days, visual rating on 0 to 100 scale (0 no effect, 100 complete control)

## CCCNC(=O)c1cc(CCCl)n(Cc2ccnc(C(F)(F)F)c2)n1 [Compound 145]
johnsongrass; [8]
  Johnsongrass plant response rating: 55
johnsongrass; 13 to 15 days
  Plant response rating, Johnsongrass: 98
johnsongrass; [9]
  Johnsongrass plant response rating: 98
foxtail, giant [1]; [8]
  Foxtail, Giant plant response rating: 100
foxtail, giant [1]; 13 to 15 days
  Plant response rating, Foxtail, Giant: 100
foxtail, giant [1]; [9]
  Foxtail, Giant plant response rating: 100
morningglory
  Morningglory plant response rating (0 to 100 scale): 100
  Morningglory plant response rating: 100
foxtail, giant [2]
  Foxtail, Giant plant response rating (0 to 100 scale): 100
  Foxtail, Giant plant response rating: 100
corn; [8]
  Corn plant response rating: 10
corn; [10]
  Corn plant response rating: 50
corn; 13 to 15 days
  Plant response rating, Corn: 80
corn; [9]
  Corn plant response rating: 90
Oilseed rape; [8]
  Oilseed Rape plant response rating: 60
Oilseed rape; [10]
  Oilseed Rape plant response rating: 98
Oilseed rape; 13 to 15 days
  Plant response rating, Oilseed Rape: 100
Oilseed rape; [9]
  Oilseed Rape plant response rating: 98
crabgrass, large; [8]
  Crabgrass, Large plant response rating: 100
crabgrass, large; 13 to 15 days
  Plant response rating, Crabgrass, Large: 100
crabgrass, large; [9]
  Crabgrass, Large plant response rating: 100
ryegrass, Italian; [8]
  Ryegrass, Italian plant response rating: 5
ryegrass, Italian; [10]
  Ryegrass, Italian plant response rating: 45
ryegrass, Italian; 13 to 15 days
  Plant response rating, Ryegrass, Italian: 85
ryegrass, Italian; [9]
  Ryegrass, Italian plant response rating: 90
Barnyardgrass [3]; 125 g ai/ha, visual injury, 0 to 100 scale, approx. 10 days
  Barnyardgrass plant response rating: 90
Barnyardgrass [3]; [11]
  Barnyardgrass plant response rating: 100
Velvetleaf [4]
  Velvetleaf plant response rating (0 to 100 scale): 50
  Velvetleaf plant response rating: 80
Barnyardgrass [5]; [8]
  Barnyardgrass plant response rating: 95
Barnyardgrass [5]; 13 to 15 days
  Plant response rating, Barnyardgrass: 100
Barnyardgrass [5]; [9]
  Barnyardgrass plant response rating: 100
Velvetleaf [6]; [12]
  Velvetleaf plant response rating: 100
Velvetleaf [6]; [13]
  Velvetleaf plant response rating: 70
Barnyardgrass [7]
  Plant response rating, Barnyardgrass: 45
ragweed; [8]
  Ragweed plant response rating: 75
ragweed; [10]
  Ragweed plant response rating: 95
ragweed; 13 to 15 days
  Plant response rating, Ragweed: 95
ragweed; [9]
  Ragweed plant response rating: 98

## CCNC(=O)c1cc(CCCl)n(Cc2ccnc(C(F)(F)F)c2)n1 [Compound 179]
johnsongrass; [8]
  Johnsongrass plant response rating: 10
johnsongrass; [10]
  Johnsongrass plant response rating: 10
johnsongrass; 13 to 15 days
  Plant response rating, Johnsongrass: 75
johnsongrass; [9]
  Johnsongrass plant response rating: 98
foxtail, giant [1]; [8]
  Foxtail, Giant plant response rating: 98
foxtail, giant [1]; [10]
  Foxtail, Giant plant response rating: 100
foxtail, giant [1]; 13 to 15 days
  Plant response rating, Foxtail, Giant: 100
foxtail, giant [1]; [9]
  Foxtail, Giant plant response rating: 100
morningglory
  Morningglory plant response rating (0 to 100 scale): 80
  Morningglory plant response rating: 100
foxtail, giant [2]
  Foxtail, Giant plant response rating (0 to 100 scale): 100
  Foxtail, Giant plant response rating: 100
corn; [8]
  Corn plant response rating: 5
corn; [10]
  Corn plant response rating: 10
corn; 13 to 15 days
  Plant response rating, Corn: 30
corn; [9]
  Corn plant response rating: 95
Oilseed rape; [8]
  Oilseed Rape plant response rating: 60
Oilseed rape; [10]
  Oilseed Rape plant response rating: 85
Oilseed rape; 13 to 15 days
  Plant response rating, Oilseed Rape: 100
Oilseed rape; [9]
  Oilseed Rape plant response rating: 100
crabgrass, large; [8]
  Crabgrass, Large plant response rating: 100
crabgrass, large; [10]
  Crabgrass, Large plant response rating: 100
crabgrass, large; 13 to 15 days
  Plant response rating, Crabgrass, Large: 100
crabgrass, large; [9]
  Crabgrass, Large plant response rating: 100
ryegrass, Italian; [8]
  Ryegrass, Italian plant response rating: 5
ryegrass, Italian; [10]
  Ryegrass, Italian plant response rating: 80
ryegrass, Italian; 13 to 15 days
  Plant response rating, Ryegrass, Italian: 90
ryegrass, Italian; [9]
  Ryegrass, Italian plant response rating: 90
Barnyardgrass [3]; 125 g ai/ha, visual injury approx. 10 days after treatment
  Barnyardgrass plant response rating (0 to 100 scale, 0 is no effect, 100 is complete control): 100
Barnyardgrass [3]; [11]
  Barnyardgrass plant response rating: 100
Velvetleaf [4]
  Velvetleaf plant response rating (0 to 100 scale): 50
  Velvetleaf plant response rating: 100
Barnyardgrass [5]; [8]
  Barnyardgrass plant response rating: 60
Barnyardgrass [5]; [10]
  Barnyardgrass plant response rating: 98
Barnyardgrass [5]; 13 to 15 days
  Plant response rating, Barnyardgrass: 100
Barnyardgrass [5]; [9]
  Barnyardgrass plant response rating: 100
Velvetleaf [6]; [12]
  Velvetleaf plant response rating: 100
Velvetleaf [6]; [13]
  Velvetleaf plant response rating: 70
Barnyardgrass [7]
  Plant response rating, Barnyardgrass: 25
ragweed; [8]
  Ragweed plant response rating: 90
ragweed; [10]
  Ragweed plant response rating: 98
ragweed; 13 to 15 days
  Plant response rating, Ragweed: 98
ragweed; [9]
  Ragweed plant response rating: 98
